Data on two molecules can be found in patent US20170058282A1 (priority 2015, published 2017).

Test [1] deals with T1, Lactococcus lactis heme-responsive transcription factor HrtR, SEQ ID NO: 1 (in E. coli MG1655, HrtR+ChuA+PhrtAB-luxCDABE) (Lactococcus cremoris, UniProt A2RIY0).
T1 sequence (A2RIY0 1-189): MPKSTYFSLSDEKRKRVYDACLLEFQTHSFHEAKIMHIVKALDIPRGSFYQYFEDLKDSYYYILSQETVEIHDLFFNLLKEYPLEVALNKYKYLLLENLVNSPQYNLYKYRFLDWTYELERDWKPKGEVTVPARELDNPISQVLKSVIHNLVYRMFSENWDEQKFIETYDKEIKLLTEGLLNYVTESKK
Kind of test: Hemin response of E. coli MG1655 with HrtR+ChuA+PhrtAB-luxCDABE (luminescence). The class given is cell-based.

Test [2] concerns the target T2, Lactococcus lactis heme-responsive transcription factor HrtR, SEQ ID NO: 1 (in E. coli MG1655, no ChuA) (Lactococcus cremoris, UniProt A2RIY0).
T2 construct: PhrtAB- or PL(HrtO)-luxCDABE reporter
T2 sequence (A2RIY0 1-189): T1 sequence (A2RIY0 1-189)
Kind of test: Hemin response of E. coli MG1655 with HrtR and PhrtAB- or PL(HrtO)-luxCDABE without ChuA (luminescence). Format: cell-based.

The structures appear in SMILES notation.

For the molecule `C=CC1=C(C)c2cc3[nH]c(cc4nc(cc5[nH]c(cc1n2)c(C)c5CCC(=O)O)C(CCC(=O)O)=C4C)c(C)c3C=C.[Fe+2]` [heme], the response concentration range result in test [1] (with ChuA) is “sub-micromolar range”.
Consider `C=CC1=C(C)c2cc3[nH]c(cc4nc(cc5[nH]c(cc1n2)c(C)c5CCC(=O)O)C(CCC(=O)O)=C4C)c(C)c3C=C.[Fe+3]` [hemin], for which the “time to detectable differences in luminescence” value in test [1] (depending on the concentration of hemin used) lay within 30 to 60 min. In test [2], the “response of gene circuit to extracellular hemin” value is reported as “insensitive”.
